Results from patent US7872015B2, “Methods involving PDE4, compositions, and the screening thereof, for the treatment of degenerative ocular pathologies” (Exonhit Therapeutics SA, priority 2003, dated 2011).

Columns and labels:
[1] = target: T1, PBR (Homo sapiens, UniProt P30536); test: Mitochondrial-specific rhodamine 1,2,3 fluorescence in HeLa cells expressing the PBR; assay type: cell-based
T1 construct: endogenous in cells; host or cells: HeLa cells
Excerpt: The PBR is situated between the inner and outer mitochondrial membrane. It forms part of the transition pore complex, which participates in regulating mitochondrial flux by opening the mitochondrial pore. There exist molecules which display high affinity for PBR, particularly Ro5-4864 and PK11195.
By monitoring mitochondrial-specific fluorescence of rhodamine 1,2,3, the effects of PBR-specific ligands and those of etazolate could be followed.

[2] = test system: cerebellar granular cells; test: Excitotoxicity protection in primary cerebellar granular cells (MTT test); assay type: cell-based, rat; details: etazolate three hours before toxic agents, 6-hour incubation
Procedure: In this example, cerebellar granular neurons, cortical neurons and ventral spinal cord cells from rats were cultured according to methods known to those skilled in the art. Seven-day-old Wistar rats were decapitated and brains were dissected. The meninges were removed and the tissue was then cut into small pieces and trypsinized for 15 minutes at 37° C. Cells were dissociated by trituration, then placed in culture at a density of 300,000 cells per cm^2 in Eagle basic medium supplemented with 10% fetal calf serum and 2 mM glutamine. The next day, 10 μM ARA-C, an antimitotic agent, was added to prevent proliferation of glial cells. The cells were treated on day 9 of culture with the inhibitor compound etazolate, three hours before adding the toxic agents 50 μM kainate or 100 μM N-methyl-D-aspartate in the presence of 10 μM D-serine. Immediately before adding the toxic agents, 8-bromo-cAMP was added. All treatments were done at least in duplicate and in at least two different cultures. After a 6-hour incubation, toxicity was measured by the MTT test. The results were normalized to the untreated mean and analyzed statistically with a Wilcoxon test. The level of significance was p≦0.05. Toxicity was measured with the MTT test. […] Absorbance at 550 nm was measured and the percentage viability was calculated.

[3] = Escalating single oral dose study in healthy male volunteers: tolerability; assay type: in vivo, humans; details: oral capsules, single doses 0.5-20 mg
Procedure: (§1) In this study, increasing doses of etazolate (0.5, 1, 2, 5, 10 and 20 mg) were administered orally in the form of 0.5 and 5 mg capsules to different and sequential groups of eight young healthy male volunteers. This was a single-center, double-blind study in which two of the eight subjects received a placebo.
(§2) The following parameters were evaluated: clinical tolerability (adverse effects, clinical signs, changes in blood pressure or heart rate), electrocardiographic tolerability (recording of the ECG) and biological tolerability (hematology and blood biochemistry, urinalysis) for 24 hours after dosing. The product was assayed in plasma at different times before and after administration in each subject (0.25-0.50-1.00-1.50-2.00-3.00-4.00-5.00-6.00-8.00-10.00-12.00 and 24.00 hours). The product was also assayed in urine collected before and after administration (4, 4-8,8-12 and 12-24 hours).

[4] = test system: cortical neurons; test: Excitotoxicity protection in primary cortical neurons (MTT test); assay type: cell-based, rat; details: etazolate 1 hour before toxic agents, 6-hour incubation
Procedure: (§3) In this example, cerebellar granular neurons, cortical neurons and ventral spinal cord cells from rats were cultured according to methods known to those skilled in the art.
Wistar rat embryos aged 16 days were removed and the cortex dissected. After trypsination at 37° C. for 25 minutes, the cells were dissociated by trituration, then seeded in minimum essential medium supplemented with 10% horse serum, 10% fetal calf serum and 2 mM glutamine, at a density of 300,000 cells per cm^2. After 4 days of culture, half the medium was replaced with minimum essential medium supplemented with 5% horse serum and 2 mM glutamine. The same day, the antimitotic 5-fluoro-2-deoxyuridine (10 μM) was added. After 7 and 11 days of culture, half the medium was replaced with conditioned medium composed of MEM supplemented with 5% horse serum and 2 mM glutamine; prior to use this medium was passed overnight on a layer of cortical astrocytes. On day 14, the cells were treated with the inhibitor compound etazolate, 1 hour before adding the toxic agents 50 μM kainate or 20 μM N-methyl-D-aspartate in the presence of 10 μM D-serine. […] After a 6-hour incubation, toxicity was measured by the MTT test. The results were normalized to the untreated mean and analyzed statistically with a Wilcoxon test. […]
(§4) Toxicity was measured with the MTT test. […] Absorbance at 550 nm was measured and the percentage viability was calculated.

[5] = Escalating single oral dose study in healthy male volunteers: plasma assays; assay type: in vivo; details: humans, at high doses
Procedure: as §1, §2

[6] = test system: retinal explants from rd1 mice; test: Retinal explant cultures from rd1 mice, histopathology of photoreceptors; assay type: cell-based; details: 2 μM etazolate, versus untreated explants
Procedure: This example describes the effects of a PDE4 inhibitor on retina of rd1 mice, which are characterized by a loss of visual cells starting two weeks after birth. For each etazolate concentration (0.02 μM, 0.2 μM, 2 μM and 20 μM), six retinal explants from rd1 mice were cultured for 21 days. The culture was started on postnatal day 7 in medium free of bovine fetal serum but containing etazolate at the indicated concentration. Six retinal explants from the same animals were used as controls for the treated explants. In this case, the explants were grown in culture medium alone or in culture medium containing the vehicle used for etazolate. For both conditions (control and treatment), the culture medium was changed every two days. After 21 days of culture, the explants were fixed, sectioned and labelled for histopathologic studies. Explants from untreated rd1 mice (postnatal day 28) lost most of their photoreceptors in culture, and the presence of an increase in photoreceptors was then detected by counting the remaining photoreceptors.

[7] = test system: ventral spinal cord cells; test: Excitotoxicity protection in primary ventral spinal cord cells (MTT test); assay type: cell-based, rat; details: 100 μM NMDA + 10 μM D-serine, 3-hour incubation
Procedure: as §3
Cells were isolated from 14-day-old Wistar rat embryos. On arrival, gestating rats were sacrificed by carbon dioxide intoxication.
The chain of embryos was removed and placed in a dish containing PBS.
The spinal cord of each embryo was dissected and the ventral cord was separated from the dorsal cords. The ventral cords were then trypsinized at 37° C. for 20 minutes. Trypsinization was stopped by addition of Leibovitz 15 medium, 20% horse serum, supplement N2 (1×), 20% glucose (3.2 mg/ml), 7.5% bicarbonate (1.8 mg/ml) and 2 mM L-glutamine. The cells were dissociated by trituration. Clumps of tissue were removed and the dissociated cells were then quantified by trypan blue staining. The cells were seeded at 250,000 cells per cm^2 in neurobasal medium containing 2% horse serum, supplement B27 (1×), and 2 mM glutamine. […] After a 3-hour incubation with NMDA/D-serine as toxic agent and a 1-hour incubation with kainate, toxicity was measured by the MTT test. The results were normalized to the untreated mean and analyzed statistically with a Wilcoxon test with p<0.05.
as §4

T1 sequence (P30536 whole entry): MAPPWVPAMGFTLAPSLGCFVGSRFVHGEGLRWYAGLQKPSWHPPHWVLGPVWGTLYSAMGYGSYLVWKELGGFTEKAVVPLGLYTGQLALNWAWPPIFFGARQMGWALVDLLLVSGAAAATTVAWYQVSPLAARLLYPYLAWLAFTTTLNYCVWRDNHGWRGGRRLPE

Row | SMILES | mitochondrial-specific fluorescence of rhodamine 1,2,3 [1] | protective effect on kainate-induced toxicity ([2]; 50 μM kainate) | protective effect on NMDA/serine-induced toxicity ([2]; 100 μM N-methyl-D-aspartate + 10 μM D-serine) | side effects [3] | tolerability (clinical, electrocardiographic, biological) ([3]; 24 hours after dosing) | protective effect on NMDA/serine-induced toxicity ([4]; 20 μM N-methyl-D-aspartate + 10 μM D-serine) | protective effect on kainate-induced toxicity ([4]; 50 μM kainate) | absorption (plasma assays) [5] | preservation of photoreceptors (photoreceptor layer) ([6]; rd1 retinal explants cultured 21 days from postnatal day 7) | number of picnotic cells ([6]; rd1 retinal explants cultured 21 days) | protective effect on NMDA/serine-induced toxicity [7]
1 | CCC(C)N(C)C(=O)c1cc2ccccc2c(-c2ccccc2Cl)n1 (stereo not shown) [PK11195] | loss of fluorescence | – | – | – | – | – | – | – | – | – | –
2 | CN1C(=O)CN=C(c2ccc(Cl)cc2)c2cc(Cl)ccc21 [Ro5-4864] | loss of fluorescence | – | – | – | – | – | – | – | – | – | –
3 | CCOC(=O)c1cnc2c(cnn2CC)c1NN=C(C)C [etazolate] | induced the same loss of fluorescence as the PBR-specific ligands | 57% | 60% | did not cause any side effects | well tolerated | 33% | 25% | good | much better preserved | marked reduction | 36%
